Reference: patent publication US9352049B2, “Ligand-therapeutic agent conjugates, silicon-based linkers, and methods for making and using them” (Albany Molecular Research, Inc., priority 2013, dated 2016)
Where a name gives a salt, the structure may show the parent alone. Read-outs that look alike come from different tables or passages of the source.

Tests used:
[1] = system: Folate receptor (FR)-positive KB cells; assay: cells; type: cell-based, Human; settings: for IC50: read-out: IC50, Inhibition of Cell Growth by the PrestoBlue Method; for inhibition at 10 µM: KB, read-out: Percentage inhibition at the highest concentration tested (10 μM)
Protocol: (§1) Folate receptor (FR)-positive KB cells (Human) from European Collection of Cell Cultures (ECACC) [Catalogue #94050408] or FR-negative human lung carcinoma A549 cells from American Type Culture Collection (ATCC) [Catalogue # CCL-185] were maintained in T75 flasks in folic acid-free RPMI 1640 medium (Invitrogen, catalogue no. 27016021) containing 10% fetal bovine serum (FBS; Invitrogen, catalogue no. 16140-071) and penicillin/streptomycin (Invitrogen, catalogue no. 15140-122) at 37° C., 5% CO2.
(§2) Cells were harvested from their maintenance cultures and seeded in 96-well plates at a density of 10000 cells per well in 100 μL folic acid-free RPMI 1640 medium and incubated at 37° C., 5% CO2 for 20-24 hours. Thirty minutes prior to compound treatment, spent medium was removed and replaced with 100 μL fresh folic acid-free RPMI 1640 medium either as such, or supplemented with 100 μmol/L folic acid. The test compounds were diluted to three times their desired final concentrations in the culture medium from their DMSO stocks. […] Following compound treatment, the cells were washed thrice with 100 μL medium and incubated with 180 μL fresh medium for 72 hours. To assess cell viability, 20 μL of PrestoBlue reagent (Invitrogen, catalogue # A-13261) was added to the wells and the plates were further incubated for 1 hour at 37° C. The PrestoBlue reagent contains a cell-permeant dye, resazurin, which is blue in color and virtually nonfluorescent. When added to cells, it is reduced by the mitochondrial enzymes in viable cells to red, highly fluorescent resorufin. Resazurin reduction is proportional to the number of metabolically active cells and therefore can be measured quantitatively. Following incubation with the PrestoBlue reagent for 1 hour, fluorescence corresponding to the resorufin dye was read on a Synergy 4 multimode microplate reader (Biotek Instruments) with the excitation and emission wavelengths set at 540 nm and 590 nm respectively. The data was analysed using XLFit and the percentage inhibition of cell proliferation was calculated.

[2] = system: FR-negative human lung carcinoma A549 cells; assay: cells; type: cell-based; settings: for IC50: read-out: IC50, Inhibition of Cell Growth by the PrestoBlue Method; for inhibition at 10 µM: read-out: Percentage inhibition at the highest concentration tested (10 μM)
Protocol: as §1, §2

[3] = Cleavage study of silyl conjugates at pH 7.4 (THF:0.01 M PBS buffer, 37° C.); type: physicochemical; settings: THF:0.01 M PBS buffer (pH 7.4), 37° C., over 20 hours
Protocol: To study the release properties of the silyl conjugates, the conjugates were subject to hydrolysis conditions at both pH 7.4 and pH 4.5 to simulate blood and endosomes/lysosome environments, respectively.
Example 12 and Example 15 were dissolved in THF:0.01 M PBS buffer (pH 7.4) and heated to 37° C. with stirring for over 20 hours. […] Additionally, Example 11 was trapped with methyl-3-mercaptopropionate to approximate a bioconjugate.

[4] = Homo sapiens, No FA, incubation 2 h
[5] = Homo sapiens, No FA, incubation 4 h
[6] = Homo sapiens, No FA, incubation 8 h
[7] = Homo sapiens, No FA, incubation 16 h

With `CC[C@]1(O)C[C@H]2CN(CCc3c([nH]c4ccccc34)[C@@](C(=O)OC)(c3cc4c(cc3OC)N(C)[C@@H]3C45CCN4CC=C[C@](CC)([C@H]45)[C@@H](O)[C@]3(O)C(=O)OC)C2)C1` (some centres unmarked) [4-desacetylvinblastine, reference compound] the IC50 ([1]; No FA, incubation 2 h) was 0.045 µM, the IC50 ([1]; No FA, incubation 4 h) was 0.01 µM and the IC50 ([1]; No FA, incubation 8 h) was 0.002 µM. For the same compound, the IC50 ([1]; No FA, incubation 16 h) was 0.003 µM, the IC50 ([2]; No FA, incubation 2 h) was 4.6 µM and the IC50 ([2]; No FA, incubation 4 h) was 0.633 µM. It also gave an IC50 ([2]; No FA, incubation 8 h) of 0.129 µM and an IC50 ([2]; No FA, incubation 16 h) of 0.057 µM.
With `Nc1nc(O)c2nc(CNc3ccc(C(=O)N[C@@H](CCC(=O)NCCOCCOCCNC(=O)CCCC[Si]4(O)CCCCC4)C(=O)O)cc3)cnc2n1` [Compound Z, (S)-2-(4-(((2-amino-4-hydroxypteridin-6-yl)methyl)amino)benzamido)-20-(1-hydroxysilinan-1-yl)-5,16-dioxo-9,12-dioxa-6,15-diazaicosan-1-oic acid triethylammonium salt, reference compound] the IC50 ([1]; 100 μM FA, incubation 2 h) was > 10 µM, the IC50 ([1]; 100 μM FA, incubation 4 h) was > 10 µM and the IC50 ([1]; 100 μM FA, incubation 8 h) was > 10 µM. For the same compound, the IC50 ([1]; 100 μM FA, incubation 16 h) was > 10 µM, the inhibition at 10 µM ([1]; Homo sapiens, 2 h, 100 μM FA, incubation 2 h) was 1% and the inhibition at 10 µM ([1]; Homo sapiens, 2 h, No FA, incubation 2 h) was ≤ 0%. For the same compound, the inhibition at 10 µM ([1]; Homo sapiens, 4 h, 100 μM FA, incubation 4 h) was ≤ 0%, the inhibition at 10 µM ([1]; Homo sapiens, 4 h, No FA, incubation 4 h) was ≤ 0% and the inhibition at 10 µM ([1]; Homo sapiens, 8 h, 100 μM FA, incubation 8 h) was ≤ 0%. The inhibition at 10 µM ([1]; Homo sapiens, 8 h, No FA, incubation 8 h) was ≤ 0%, the inhibition at 10 µM ([1]; Homo sapiens, 16 h, 100 μM FA, incubation 16 h) was 2% and the inhibition at 10 µM ([1]; Homo sapiens, 16 h, No FA, incubation 16 h) was 1%. The IC50 [1, 4] was > 10 µM, the IC50 [1, 5] was > 10 µM and the IC50 [1, 6] was > 10 µM. For the same compound, the IC50 [1, 7] was > 10 µM, the IC50 ([2]; 100 μM FA, incubation 2 h) was > 10 µM and the IC50 ([2]; 100 μM FA, incubation 4 h) was > 10 µM. For the same compound, the IC50 ([2]; 100 μM FA, incubation 8 h) was > 10 µM, the IC50 ([2]; 100 μM FA, incubation 16 h) was > 10 µM and the inhibition at 10 µM ([2]; Homo sapiens, A549, 2 h, 100 μM FA, incubation 2 h) was 9%. For the same compound, the inhibition at 10 µM ([2]; Homo sapiens, A549, 2 h, No FA, incubation 2 h) was 7%, the inhibition at 10 µM ([2]; Homo sapiens, A549, 4 h, 100 μM FA, incubation 4 h) was ≤ 0% and the inhibition at 10 µM ([2]; Homo sapiens, A549, 4 h, No FA, incubation 4 h) was ≤ 0%. The inhibition at 10 µM ([2]; Homo sapiens, A549, 8 h, 100 μM FA, incubation 8 h) was ≤ 0%, the inhibition at 10 µM ([2]; Homo sapiens, A549, 8 h, No FA, incubation 8 h) was ≤ 0% and the inhibition at 10 µM ([2]; Homo sapiens, A549, 16 h, 100 μM FA, incubation 16 h) was 3.5%. For the same compound, the inhibition at 10 µM ([2]; Homo sapiens, A549, 16 h, No FA, incubation 16 h) was ≤ 0%, the IC50 [2, 4] was > 10 µM and the IC50 [2, 5] was > 10 µM. For the same compound, the IC50 [2, 6] was > 10 µM and the IC50 [2, 7] was > 10 µM.
For `CC[C@]1(O)CC2CN(CCc3c([nH]c4ccccc34)[C@@](C(=O)OC)(c3cc4c(cc3OC)N(C)[C@H]3[C@@](O)(C(=O)OC)[C@H](O[Si]5(CCCCC(=O)OCc6ccccc6)CCCC5)[C@]5(CC)C=CCN6CC[C@]43[C@@H]65)C2)C1` (stereo partly drawn) [Example 12, (3aR,3a^1R,4R,5S,10bR)-methyl 4-((1-(5-(benzyloxy)-5-oxopentyl)silolan-1-yl)oxy)-3a-ethyl-9-((5S,7R,9S)-5-ethyl-5-hydroxy-9-(methoxycarbonyl)-2,4,5,6,7,8,9,10-octahydro-1H-3,7-methano[1]azacycloundecino[5,4-b]indol-9-yl)-5-hydroxy-8-methoxy-6-methyl-3a,3a^1,4,5,5a,6,11,12-octahydro-1H-indolizino[8,1-cd]carbazole-5-carboxylate], the “hydrolysis (e.g. parent vinca) at pH 7.4” value [3] was “No evidence of hydrolysis”.
`CCC1(O)CC2CN(CCc3c([nH]c4ccccc34)C(C(=O)OC)(c3cc4c(cc3OC)N(C)C3C(O)(C(=O)OC)C(O[Si]5(CCCCC(=O)NCCOCCOCCNC(=O)CCC(NC(=O)c6ccc(NCc7cnc8nc(N)nc(O)c8n7)cc6)C(=O)O)CCCCC5)C5(CC)C=CCN6CCC43C65)C2)C1` (centres unmarked) [Example 20] gave an IC50 ([1]; 100 μM FA, incubation 2 h) of 4.2 µM, an IC50 ([1]; 100 μM FA, incubation 4 h) of 3.4 µM and an IC50 ([1]; 100 μM FA, incubation 8 h) of 3.1 µM. For the same compound, the IC50 ([1]; 100 μM FA, incubation 16 h) was 1.5 µM, the IC50 ([1]; No FA, incubation 2 h) was 3.5 µM and the IC50 ([1]; No FA, incubation 4 h) was 2.6 µM. For the same compound, the IC50 ([1]; No FA, incubation 8 h) was 1.8 µM, the IC50 ([1]; No FA, incubation 16 h) was 0.3 µM and the “Percentage inhibition at the highest concentration tested (10 μM)” value (“Percentage inhibition” for short) ([2]; 100 μM FA, incubation 2 h) was 44%. For the same compound, the IC50 ([2]; 100 μM FA, incubation 2 h) was > 10 µM, the IC50 ([2]; 100 μM FA, incubation 4 h) was 6.6 µM and the IC50 ([2]; 100 μM FA, incubation 8 h) was 4.1 µM. For the same compound, the IC50 ([2]; 100 μM FA, incubation 16 h) was 1.4 µM, the “Percentage inhibition” value ([2]; No FA, incubation 2 h) was 20% and the IC50 ([2]; No FA, incubation 2 h) was > 10 µM. The “Percentage inhibition” value ([2]; No FA, incubation 4 h) was 46%, the IC50 ([2]; No FA, incubation 4 h) was > 10 µM and the IC50 ([2]; No FA, incubation 8 h) was 6.7 µM. The IC50 ([2]; No FA, incubation 16 h) was 1.4 µM.
Work on `CC[C@]1(O)CC2CN(CCc3c([nH]c4ccccc34)[C@@](C(=O)OC)(c3cc4c(cc3OC)N(C)[C@H]3[C@@](O)(C(=O)OC)[C@H](O[Si]5(CCCCC(=O)NCCOCCOCCOCCNC(=O)CC[C@H](NC(=O)c6ccc(NCc7cnc8nc(N)nc(O)c8n7)cc6)C(=O)O)CCCCC5)[C@]5(CC)C=CCN6CC[C@]43[C@@H]65)C2)C1` (some centres unmarked) [Example 21] yielded an IC50 ([1]; 100 μM FA, incubation 2 h) of 6 µM, an IC50 ([1]; 100 μM FA, incubation 4 h) of 4 µM and an IC50 ([1]; 100 μM FA, incubation 8 h) of 3.1 µM. It also gave an IC50 ([1]; 100 μM FA, incubation 16 h) of 1.7 µM, an IC50 ([1]; No FA, incubation 2 h) of 4.1 µM and an IC50 ([1]; No FA, incubation 4 h) of 3.1 µM. The IC50 ([1]; No FA, incubation 8 h) was 2.3 µM, the IC50 ([1]; No FA, incubation 16 h) was 1.5 µM and the “Percentage inhibition” value ([2]; 100 μM FA, incubation 2 h) was 40%. For the same compound, the IC50 ([2]; 100 μM FA, incubation 2 h) was > 10 µM, the IC50 ([2]; 100 μM FA, incubation 4 h) was 8.6 µM and the IC50 ([2]; 100 μM FA, incubation 8 h) was 5.3 µM. For the same compound, the IC50 ([2]; 100 μM FA, incubation 16 h) was 1.8 µM, the “Percentage inhibition” value ([2]; No FA, incubation 2 h) was 8% and the IC50 ([2]; No FA, incubation 2 h) was > 10 µM. For the same compound, the “Percentage inhibition” value ([2]; No FA, incubation 4 h) was 24%, the IC50 ([2]; No FA, incubation 4 h) was > 10 µM and the “Percentage inhibition” value ([2]; No FA, incubation 8 h) was 47%. For the same compound, the IC50 ([2]; No FA, incubation 8 h) was > 10 µM and the IC50 ([2]; No FA, incubation 16 h) was 4.4 µM.
